Laboratory results from US20230330093A1, “APPLICATION OF NITROGEN-CONTAINING SATURATED HETEROCYCLIC COMPOUND” (SHANGHAI PHARMACEUTICALS HOLDING CO., LTD., priority 2020, published 2023).
Where “and” joins values, the source holds several entries; their conditions need not be identical. Equal entries are not always repeated. Entries after “also recorded” stand apart in the source; their conditions may differ.

How the values were obtained:
Format in all cases: in vivo, Macaca mulatta (Rhesus Macaque)
[1] = tested on: rhesus monkeys with spontaneous chronic kidney disease; assay: Effect on blood pressure (SBP, DBP, MBP, HR) after anesthesia, 8-week administration; conditions: for SBP / DBP: 5 mg/kg qd (n = 6)
From the text: In the trial, animals were brought in three stages.
Route of administration: Oral administration.
After anesthesia, the animal was placed in a supine position. The left upper arm was shaved clean, and a suitable size cuff was tied according to the standard. The blood oxygen probe was clamped on the animal's finger or toe (except for the left hand), and the red light-sensitive surface was on the side of the finger pad. The blood pressure of the animal was continuously measured for 3 times in the automatic mode with an interval of 1 min. If the difference of DBP, SBP and MBP of blood pressure measured more than three times was not significant (the difference between the highest value and the lowest value was less than 15 mmHg), the measurement was completed.
Testing equipment: GE B40i electrophysiological monitor.
See Table 16 for the effects of administration of each administration group on blood pressure. The blood pressure test of primates required anesthesia, so it was necessary to control the variability of heart rate at various time points to make statistics.

[2] = tested on: rhesus monkeys with spontaneous chronic kidney disease; assay: Effect on plasma creatinine Cr-P, 8-week administration
Description: (§1) In the trial, animals were brought in three stages. […] Glomerular filtration rate […]: creatinine (Cr-P), urea nitrogen (BUN) and cystatin (CysC) were detected, and the eGFR value was obtained by calculation. It was performed once before the administration and once every two weeks after the administration. […] ELISA kit was used for NT-proBNP test. [table]

[3] = tested on: rhesus monkeys with spontaneous chronic kidney disease; assay: Effect on BUN, 8-week administration
Description: as §1

[4] = tested on: rhesus monkeys with spontaneous chronic kidney disease; assay: Effect on NT-proBNP (ELISA), 8-week administration
From the text: In the trial, animals were brought in three stages. […] ELISA kit was used for NT-proBNP test. [table]

[5] = 5 mg/kg qd (n=6), after W8 administration, p<0.01 vs placebo
[6] = 1 mg/kg (n = 5), Baseline, single animals and Mean ± SD
[7] = 1 mg/kg (n = 5), Baseline, single animals and Mean ± SD, mean
[8] = 2 mg/kg (n = 5), Baseline, single animals and Mean ± SD
[9] = 2 mg/kg (n = 5), Baseline, single animals and Mean ± SD, mean
[10] = 5 mg/kg (n = 6), Baseline, single animals and Mean ± SD
[11] = 5 mg/kg (n = 6), Baseline, single animals and Mean ± SD, mean

## COC(=O)NCCCn1nc([C@@H](C)N(C(=O)[C@H]2CNCCO2)C2CC2)c2ccc(C)nc21.O=C(O)C[C@H](O)C(=O)O [malate of compound of Formula I]
[1]; 4 weeks
  SBP: 136 mmHg and 124 mmHg and 159 mmHg and 144 mmHg and 139 mmHg
[1]; 4 weeks, mean
  SBP: 138 ± 12 mmHg
[1]; 8 weeks
  DBP: 57 mmHg and 97 mmHg and 60 mmHg and 59 mmHg
  SBP: 114 mmHg and 161 mmHg and 121 mmHg and 128 mmHg
[1]; 8 weeks, mean
  DBP: 66 ± 15 mmHg
  SBP: 129 ± 16 mmHg
[1]; Baseline
  DBP: 63 mmHg and 105 mmHg and 74 mmHg and 97 mmHg and 70 mmHg and 71 mmHg
[1]; Baseline, mean
  DBP: 80 ± 17 mmHg
[1]; Baseline, single animals and Mean ± SD
  SBP: 132 mmHg and 159 mmHg and 127 mmHg and 180 mmHg and 154 mmHg and 149 mmHg
[1]; Baseline, single animals and Mean ± SD, mean
  SBP: 150 ± 19 mmHg
[1]; [5]
  DBP reduced by on average, compared with the baseline: 10±7 mmHg
  SBP reduced by on average, compared with the baseline: 21±8 mmHg
[1]; 1-5 mg/kg qd for 8 weeks
  activity of lowering blood pressure: showed the activity of lowering the blood pressure; also recorded: the activity of lowering blood pressure was shown
[2]; 1 mg/kg (n = 5), 2 weeks
  Cr-P: 1.21 mg/dL and 1.07 mg/dL and 1.12 mg/dL and 1.13 mg/dL and 1.24 mg/dL
[2]; 1 mg/kg (n = 5), 2 weeks, mean
  Cr-P: 1.15 ± 0.07 mg/dL
[2]; 1 mg/kg (n = 5), 4 weeks
  Cr-P: 1.11 mg/dL and 1.01 mg/dL and 1.12 mg/dL and 1.06 mg/dL and 1.26 mg/dL
[2]; 1 mg/kg (n = 5), 4 weeks, mean
  Cr-P: 1.11 ± 0.09 mg/dL
[2]; 1 mg/kg (n = 5), 6 weeks
  Cr-P: 1.16 mg/dL and 1.07 mg/dL and 1.22 mg/dL
[2]; 1 mg/kg (n = 5), 6 weeks, mean
  Cr-P: 1.12 ± 0.07 mg/dL
[2]; 1 mg/kg (n = 5), 8 weeks
  Cr-P: 1.14 mg/dL and 1.01 mg/dL and 1.17 mg/dL and 1.18 mg/dL and 1.22 mg/dL
[2]; 1 mg/kg (n = 5), 8 weeks, mean
  Cr-P: 1.14 ± 0.08 mg/dL
[2]; [6]
  Cr-P: 1.25 mg/dL and 1.03 mg/dL and 1.09 mg/dL and 1.05 mg/dL and 1.21 mg/dL
[2]; [7]
  Cr-P: 1.13 ± 0.10 mg/dL
[2]; 2 mg/kg (n = 5), 2 weeks
  Cr-P: 1.1 mg/dL and 1.19 mg/dL and 1.52 mg/dL and 1.54 mg/dL and 1.11 mg/dL
[2]; 2 mg/kg (n = 5), 2 weeks, mean
  Cr-P: 1.29 ± 0.22 mg/dL
[2]; 2 mg/kg (n = 5), 4 weeks
  Cr-P: 1.15 mg/dL and 1.44 mg/dL and 1.47 mg/dL and 1.26 mg/dL and 1.09 mg/dL
[2]; 2 mg/kg (n = 5), 4 weeks, mean
  Cr-P: 1.28 ± 0.17 mg/dL
[2]; 2 mg/kg (n = 5), 6 weeks
  Cr-P: 1.17 mg/dL and 1.27 mg/dL and 1.43 mg/dL and 1.34 mg/dL and 1.04 mg/dL
[2]; 2 mg/kg (n = 5), 6 weeks, mean
  Cr-P: 1.25 ± 0.15 mg/dL
[2]; 2 mg/kg (n = 5), 8 weeks
  Cr-P: 1.17 mg/dL and 1.29 mg/dL and 1.4 mg/dL and 1.3 mg/dL and 1.11 mg/dL
[2]; 2 mg/kg (n = 5), 8 weeks, mean
  Cr-P: 1.25 ± 0.11 mg/dL
[2]; [8]
  Cr-P: 1.15 mg/dL and 1.14 mg/dL and 1.36 mg/dL and 1.42 mg/dL and 1.06 mg/dL
[2]; [9]
  Cr-P: 1.23 ± 0.16 mg/dL
[2]; 5 mg/kg (n = 6), 2 weeks
  Cr-P: 0.92 mg/dL and 1.14 mg/dL and 0.88 mg/dL and 1.12 mg/dL and 1.40 mg/dL and 0.96 mg/dL
[2]; 5 mg/kg (n = 6), 2 weeks, mean
  Cr-P: 1.07 ± 0.19 mg/dL
[2]; 5 mg/kg (n = 6), 4 weeks
  Cr-P: 0.85 mg/dL and 1.26 mg/dL and 0.89 mg/dL and 1.15 mg/dL and 1.13 mg/dL and 1.33 mg/dL
[2]; 5 mg/kg (n = 6), 4 weeks, mean
  Cr-P: 1.10 ± 0.19 mg/dL
[2]; 5 mg/kg (n = 6), 6 weeks
  Cr-P: 0.87 mg/dL and 1.42 mg/dL and 1.02 mg/dL and 1.06 mg/dL and 1.12 mg/dL and 1.32 mg/dL
[2]; 5 mg/kg (n = 6), 6 weeks, mean
  Cr-P: 1.14 ± 0.20 mg/dL
[2]; 5 mg/kg (n = 6), 8 weeks
  Cr-P: 0.85 mg/dL and 1.22 mg/dL and 0.95 mg/dL and 1.04 mg/dL and 1.11 mg/dL and 1.18 mg/dL
[2]; 5 mg/kg (n = 6), 8 weeks, mean
  Cr-P: 1.06 ± 0.14 mg/dL
[2]; [10]
  Cr-P: 0.90 mg/dL and 1.53 mg/dL and 1.10 mg/dL and 0.99 mg/dL and 1.43 mg/dL and 1.79 mg/dL
[2]; [11]
  Cr-P: 1.29 ± 0.35 mg/dL
[3]; 1 mg/kg (n = 5), Baseline2, single animals and Mean ± SD
  BUN: 35.1 mg/dL and 32.4 mg/dL and 19.3 mg/dL and 39.8 mg/dL and 40.8 mg/dL
[3]; 1 mg/kg (n = 5), Baseline2, single animals and Mean ± SD, mean
  BUN: 33.5 ± 8.6 mg/dL
[3]; 2 mg/kg (n = 5), 4 weeks
  BUN: 42.7 mg/dL and 37.1 mg/dL and 22.9 mg/dL and 41.6 mg/dL and 30.4 mg/dL
[3]; 2 mg/kg (n = 5), 4 weeks, mean
  BUN: 34.9 ± 8.3 mg/dL
[3]; 2 mg/kg (n = 5), Baseline2, single animals and Mean ± SD
  BUN: 37.5 mg/dL and 24.2 mg/dL and 18.7 mg/dL and 42.1 mg/dL and 25.4 mg/dL
[3]; 2 mg/kg (n = 5), Baseline2, single animals and Mean ± SD, mean
  BUN: 29.6 ± 9.8 mg/dL
[3]; 5 mg/kg (n = 6), Baseline2, single animals and Mean ± SD
  BUN: 18.6 mg/dL and 37.3 mg/dL and 41.3 mg/dL and 77.3 mg/dL and 18.1 mg/dL and 81.2 mg/dL
[3]; 5 mg/kg (n = 6), Baseline2, single animals and Mean ± SD, mean
  BUN: 45.6 ± 27.7 mg/dL
[4]; [6]
  NT-proBNP: 88 pg/mL and 299 pg/mL and 127 pg/mL and 203 pg/mL and 44 pg/mL
[4]; [7]
  NT-proBNP: 152 ± 101 pg/mL
[4]; [8]
  NT-proBNP: 43 pg/mL and 155 pg/mL and 335 pg/mL and 46 pg/mL and 250 pg/mL
[4]; [9]
  NT-proBNP: 166 ± 127 pg/mL
[4]; 5 mg/kg (n = 6), 8 weeks
  NT-proBNP: 261 pg/mL and 146 pg/mL and 250 pg/mL and 197 pg/mL and 180 pg/mL
[4]; 5 mg/kg (n = 6), 8 weeks, mean
  NT-proBNP: 231 ± 73 pg/mL
[4]; [10]
  NT-proBNP: 312 pg/mL and 88 pg/mL and 211 pg/mL and 432 pg/mL and 177 pg/mL and 162 pg/mL
[4]; [11]
  NT-proBNP: 230 ± 123 pg/mL
